# Test results as given in patent US9546150B2, “Substituted quinazolin-4-ones for inhibiting ubiquitin specific protease 7” (HYBRIGENICS SA, priority 2011, dated 2017).
# Experiments:
# Type in all cases: biochemical
# CYLD = target: T1, CYLD (Homo sapiens, UniProt Q9NQC7); experiment: HAUbVS competition assay in HEK293 cell lysates, CYLD; details: 12.5-200 μM
# T1 sequence (Q9NQC7 1-956): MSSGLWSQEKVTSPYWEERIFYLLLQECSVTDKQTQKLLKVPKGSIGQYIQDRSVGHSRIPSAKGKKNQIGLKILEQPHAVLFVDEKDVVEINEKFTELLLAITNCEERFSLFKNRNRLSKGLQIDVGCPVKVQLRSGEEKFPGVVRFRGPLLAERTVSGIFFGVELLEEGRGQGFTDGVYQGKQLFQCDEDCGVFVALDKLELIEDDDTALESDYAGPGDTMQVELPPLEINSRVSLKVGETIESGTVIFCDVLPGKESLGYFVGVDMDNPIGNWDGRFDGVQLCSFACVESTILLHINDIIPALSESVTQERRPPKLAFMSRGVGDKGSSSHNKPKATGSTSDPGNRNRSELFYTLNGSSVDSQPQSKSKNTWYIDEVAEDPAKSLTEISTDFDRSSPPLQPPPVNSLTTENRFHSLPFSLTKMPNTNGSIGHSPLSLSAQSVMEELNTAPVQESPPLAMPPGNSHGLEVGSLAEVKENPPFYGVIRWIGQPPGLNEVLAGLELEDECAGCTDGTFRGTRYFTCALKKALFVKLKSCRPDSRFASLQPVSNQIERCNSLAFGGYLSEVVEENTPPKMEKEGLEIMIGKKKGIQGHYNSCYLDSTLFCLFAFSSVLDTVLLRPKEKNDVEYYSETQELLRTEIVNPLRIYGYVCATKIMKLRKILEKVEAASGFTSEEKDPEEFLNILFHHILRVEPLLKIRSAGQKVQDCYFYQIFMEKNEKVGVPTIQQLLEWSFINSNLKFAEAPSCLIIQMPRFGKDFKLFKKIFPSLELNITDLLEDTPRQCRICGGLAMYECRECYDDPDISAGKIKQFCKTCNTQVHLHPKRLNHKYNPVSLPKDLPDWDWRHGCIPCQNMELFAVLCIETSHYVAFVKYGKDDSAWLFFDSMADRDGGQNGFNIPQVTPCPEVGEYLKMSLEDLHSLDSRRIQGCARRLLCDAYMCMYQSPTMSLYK
# USP7 [1] = target: T2, USP7 (Homo sapiens, UniProt Q93009); experiment: Time-dependent pre-incubation experiment with USP7, Ub-AMC; parameters: Full-length wild-type human USP7 and its catalytic mutant; His tag (pFastBac-HT vector) (N); made in house; host or cells: Spodoptera frugiperda Sf9 (or High Five) insect cells, baculovirus
# T2 sequence (Q93009 whole entry): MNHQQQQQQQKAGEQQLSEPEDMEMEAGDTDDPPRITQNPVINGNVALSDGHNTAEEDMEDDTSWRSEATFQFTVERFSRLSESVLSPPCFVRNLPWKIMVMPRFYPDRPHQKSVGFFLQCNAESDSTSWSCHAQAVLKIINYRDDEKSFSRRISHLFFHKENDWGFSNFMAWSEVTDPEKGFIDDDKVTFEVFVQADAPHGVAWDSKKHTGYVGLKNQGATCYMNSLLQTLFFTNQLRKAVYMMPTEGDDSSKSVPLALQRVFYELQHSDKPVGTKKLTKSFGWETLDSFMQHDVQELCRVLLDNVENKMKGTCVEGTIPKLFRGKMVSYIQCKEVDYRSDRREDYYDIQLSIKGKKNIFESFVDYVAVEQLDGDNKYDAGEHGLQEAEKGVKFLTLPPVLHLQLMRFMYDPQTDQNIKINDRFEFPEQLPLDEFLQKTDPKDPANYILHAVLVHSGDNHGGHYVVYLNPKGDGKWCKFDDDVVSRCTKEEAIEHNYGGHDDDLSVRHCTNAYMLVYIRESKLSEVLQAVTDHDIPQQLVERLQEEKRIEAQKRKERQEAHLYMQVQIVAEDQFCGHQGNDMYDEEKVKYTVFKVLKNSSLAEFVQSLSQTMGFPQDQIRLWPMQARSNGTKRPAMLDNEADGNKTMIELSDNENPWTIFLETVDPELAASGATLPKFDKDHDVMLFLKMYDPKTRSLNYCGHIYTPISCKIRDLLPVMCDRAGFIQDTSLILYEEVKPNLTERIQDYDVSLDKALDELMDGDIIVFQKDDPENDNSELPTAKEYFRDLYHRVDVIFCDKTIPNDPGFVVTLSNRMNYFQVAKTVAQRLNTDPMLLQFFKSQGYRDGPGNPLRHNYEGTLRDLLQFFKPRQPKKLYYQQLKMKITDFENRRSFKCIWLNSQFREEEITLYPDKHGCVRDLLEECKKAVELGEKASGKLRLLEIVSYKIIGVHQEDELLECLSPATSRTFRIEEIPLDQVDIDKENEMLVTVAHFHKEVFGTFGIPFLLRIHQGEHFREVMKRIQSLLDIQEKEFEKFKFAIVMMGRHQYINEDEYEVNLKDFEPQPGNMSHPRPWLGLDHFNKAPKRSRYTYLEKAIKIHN
# Procedure: To better understand the mechanism of inhibition of USP7 by our USP7-specific compounds, several experiments were performed. […] […].
# USP7 [2] = target: T2, USP7; experiment: Reversibility of USP7 inhibition after G50 gel filtration; parameters: Full-length wild-type human USP7 and its catalytic mutant; His tag (pFastBac-HT vector) (N); made in house; host or cells: Spodoptera frugiperda Sf9 (or High Five) insect cells, baculovirus; details: 100 μM, 4 h at room temperature, USP7 100 pM
# Procedure: The reversibility of inhibition was next determined by measuring the recovery of enzymatic activity after gel filtration. […] We passed some of each sample through a G50 gel filtration system (Sephadex, G50 superfine, Sigma Aldricht). The deubiquitinating activity of the G50 eluates was assessed with the Ub-AMC substrate, as described above, and compared with that of samples not subjected to G50 filtration. The reactions were monitored using the PHERAstar (BMG Labtech).
# USP5 = target: T3, USP5 (Homo sapiens, UniProt P45974); experiment: HAUbVS competition assay in HEK293 cell lysates, USP5; details: 12.5-200 μM
# T3 sequence (P45974 1-858): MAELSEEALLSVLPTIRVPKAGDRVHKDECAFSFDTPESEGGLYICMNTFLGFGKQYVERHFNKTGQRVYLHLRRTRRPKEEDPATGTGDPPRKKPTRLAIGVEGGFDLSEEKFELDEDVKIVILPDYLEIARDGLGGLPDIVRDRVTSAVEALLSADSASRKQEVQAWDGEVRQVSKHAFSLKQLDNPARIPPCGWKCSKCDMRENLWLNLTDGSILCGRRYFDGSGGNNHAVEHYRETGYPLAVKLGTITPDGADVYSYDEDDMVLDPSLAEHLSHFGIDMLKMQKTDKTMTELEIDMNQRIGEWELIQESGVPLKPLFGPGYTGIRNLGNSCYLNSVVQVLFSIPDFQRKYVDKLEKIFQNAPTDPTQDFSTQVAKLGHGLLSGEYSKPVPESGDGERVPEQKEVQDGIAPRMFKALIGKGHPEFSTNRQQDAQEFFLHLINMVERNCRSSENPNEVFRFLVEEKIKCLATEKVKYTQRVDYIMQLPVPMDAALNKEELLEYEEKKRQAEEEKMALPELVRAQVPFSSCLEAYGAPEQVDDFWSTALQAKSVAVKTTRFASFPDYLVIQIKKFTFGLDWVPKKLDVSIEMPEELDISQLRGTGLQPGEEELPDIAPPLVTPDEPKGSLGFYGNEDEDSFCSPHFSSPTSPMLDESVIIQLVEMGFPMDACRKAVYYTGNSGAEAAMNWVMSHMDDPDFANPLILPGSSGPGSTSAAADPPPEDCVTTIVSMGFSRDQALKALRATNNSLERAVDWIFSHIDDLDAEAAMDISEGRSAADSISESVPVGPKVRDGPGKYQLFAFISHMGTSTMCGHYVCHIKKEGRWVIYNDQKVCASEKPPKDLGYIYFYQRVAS
# Procedure: The HA-Ub-VS probe (Hemagglutin tag-Ubiquitin-Vinyl Sulfone) was used in this study to directly visualize the activity of all deubiquitinating enzymes from native proteomes.
# HEK293 cells were harvested and lysed on ice with a non denaturating buffer containing Tris pH7.4, 50 mM; NaCl, 150 mM; MgCl2, 5 mM; EDTA, 0.5 mM; DTT, 2 mM; ATP (adenosine triphosphate), 2 mM; NP40 (nonyl phenoxypolyethoxylethanol), 0.5% and glycerol, 10%. Samples were incubated at 4° C. for 1 hour and clarified. Proteins were then quantified by Bradford method (Bio-Rad Protein Assay). […] The ubiquitin labeling reaction was initiated by the addition of HA-Ub-VS (8 μg/ml) in labeling buffer (Tris pH7.6, 50 mM; MgCl2, 5 mM; EDTA, 0.5 mM; DTT, 2 mM; ATP, 2 mM; sucrose, 250 mM) and incubated at room temperature for 15 min. Samples were next heated at 100° C. for 10 minutes and briefly sonicated. They were resolved by SDS-polyacrylamide gel electrophoresis (SDS-PAGE), transferred to a nitrocellulose membrane and probed with antibodies against USP7, HA, UCH-L3, CYLD, USP8, USP5, USP10 and Stat3. […] Signals were detected by enhanced chemiluminescence (ECL; Amersham) according to the reagent manufacturer's instructions.
SMILES,blocking of HAUbVS labeling of CYLD (CYLD),"time dependence of USP7 inhibition (USP7 [1]; 100 μM, pre-incubation 30 min, 1 h, 2 h, 4 h, 6 h)","inhibition at 100 µM (USP7 [1]; USP7 100 pM, pre-incubation 30 min to 6 h, Ub-AMC)",recovery of USP7 activity after G50 gel filtration (USP7 [2]),blocking of HAUbVS labeling of USP5 (USP5)
"O=C(CCc1ccccc1)N1CCC(O)(Cn2cnc3cc(Cl)ccc3c2=O)CC1 [Example 2, 7-chloro-3-{[4-hydroxy-1-(3-phenylpropanoyl)piperidin-4-yl]methyl}-3,4-dihydroquinazolin-4-one]",without any cross-reaction,not a time-dependent inhibitor,~75%,–,–
"O=C(CCC1CCCC1)N1CCC(O)(Cn2cnc3ccccc3c2=O)CC1 [Example 3, 3-{[1-(3-cyclopentylpropanoyl)-4-hydroxypiperidin-4-yl]methyl}-3,4-dihydroquinazolin-4-one]",–,–,–,total restoration of USP7 activity,–
"CC(Cc1cccs1)C(=O)N1CCC(O)(Cn2cnc3ccccc3c2=O)CC1 (stereo not drawn) [Example 5, 3-({4-hydroxy-1-[2-methyl-3-(thiophen-2-yl)propanoyl]piperidin-4-yl}methyl)-3,4-dihydroquinazolin-4-one]",without any cross-reaction,–,–,–,without any cross-reaction
